Test results reported in the NIST ThermoML archive (doi:10.1021/acs.jced.9b00752).
Where “and” joins values, the source holds several entries; their conditions need not be identical. Identical values can stand only once.

Experiment: mn = molality of the nth substance listed, in mol/kg
Conditions: 100 kPa, Liquid, Vibrating tube method

N[C@@H](Cc1ccc(O)cc1)C(=O)O [3-(p-hydroxyphenyl)-L-alanine] + O
mass density
Conditions	278.65 K	279.15 K	279.65 K	280.15 K	280.65 K	281.15 K	281.65 K	282.15 K	282.65 K	283.15 K
m1 = 0.0005	999.962 kg/m3	999.948 kg/m3	999.932 kg/m3	999.91 kg/m3	999.886 kg/m3	999.858 kg/m3	999.824 kg/m3	999.79 kg/m3	999.751 kg/m3	999.71 kg/m3
m1 = 0.001	999.995 kg/m3	999.981 kg/m3	999.964 kg/m3	999.941 kg/m3	999.918 kg/m3	999.89 kg/m3	999.857 kg/m3	999.821 kg/m3	999.781 kg/m3	999.741 kg/m3
m1 = 0.0011	1000.02 kg/m3	1000.01 kg/m3	999.989 kg/m3	999.968 kg/m3	999.946 kg/m3	999.917 kg/m3	999.883 kg/m3	999.848 kg/m3	999.809 kg/m3	999.765 kg/m3
m1 = 0.0022	1000.09 kg/m3	1000.08 kg/m3	1000.06 kg/m3	1000.04 kg/m3	1000.01 kg/m3	999.984 kg/m3	999.951 kg/m3	999.916 kg/m3	999.876 kg/m3	999.835 kg/m3
m1 = 0.0026	1000.11 kg/m3	1000.1 kg/m3	1000.08 kg/m3	1000.06 kg/m3	1000.03 kg/m3	1000 kg/m3	999.971 kg/m3	999.937 kg/m3	999.897 kg/m3	999.854 kg/m3
m1 = 0.0035	1000.18 kg/m3	1000.16 kg/m3	1000.14 kg/m3	1000.12 kg/m3	1000.1 kg/m3	1000.07 kg/m3	1000.03 kg/m3	1000 kg/m3	999.961 kg/m3	999.919 kg/m3
m1 = 0.0036	1000.18 kg/m3	1000.16 kg/m3	1000.14 kg/m3	1000.12 kg/m3	1000.1 kg/m3	1000.07 kg/m3	1000.04 kg/m3	1000 kg/m3	999.962 kg/m3	999.92 kg/m3
m1 = 0.0038	1000.18 kg/m3	1000.17 kg/m3	1000.15 kg/m3	1000.13 kg/m3	1000.1 kg/m3	1000.08 kg/m3	1000.04 kg/m3	1000.01 kg/m3	999.967 kg/m3	999.925 kg/m3
m1 = 0.0045	1000.23 kg/m3 and 1000.24 kg/m3	1000.22 kg/m3 and 1000.23 kg/m3	1000.2 kg/m3 and 1000.21 kg/m3	1000.18 kg/m3 and 1000.19 kg/m3	1000.15 kg/m3 and 1000.16 kg/m3	1000.13 kg/m3 and 1000.14 kg/m3	1000.09 kg/m3 and 1000.1 kg/m3	1000.06 kg/m3 and 1000.07 kg/m3	1000.02 kg/m3 and 1000.03 kg/m3	999.976 kg/m3 and 999.985 kg/m3
m1 = 0.0047	1000.24 kg/m3	1000.22 kg/m3	1000.21 kg/m3	1000.18 kg/m3	1000.16 kg/m3	1000.13 kg/m3	1000.1 kg/m3	1000.06 kg/m3	1000.02 kg/m3	999.98 kg/m3
m1 = 0.0053	1000.28 kg/m3 and 1000.29 kg/m3	1000.27 kg/m3 and 1000.28 kg/m3	1000.25 kg/m3 and 1000.26 kg/m3	1000.23 kg/m3 and 1000.24 kg/m3	1000.2 kg/m3 and 1000.21 kg/m3	1000.17 kg/m3 and 1000.18 kg/m3	1000.14 kg/m3 and 1000.15 kg/m3	1000.1 kg/m3 and 1000.12 kg/m3	1000.07 kg/m3 and 1000.08 kg/m3	1000.02 kg/m3 and 1000.03 kg/m3
m1 = 0.0055	1000.28 kg/m3	1000.27 kg/m3	1000.25 kg/m3	1000.23 kg/m3	1000.2 kg/m3	1000.17 kg/m3	1000.14 kg/m3	1000.1 kg/m3	1000.07 kg/m3	1000.02 kg/m3
